Here are results for two compounds from patent US20250195460A1, “MEDIUM CHAIN TRIGLYCERIDE AND SHORT CHAIN FATTY ACID COMPOSITIONS & METHODS OF USE THEREOF” (priority 2023, published 2025).

The subject of this assay is HepG2 cells. In words: Ketogenic activity in HepG2 cells (ketone levels in cell supernatants). As to conditions: each component 2.4 mM, glucose-free media, up to 135 minutes, FIG. 1. The class given is cell-based. How it is done: In this Example, the ketogenic activities of various compositions were tested in HepG2 cells. More particularly, the ketogenic activity of butyric acid (2.4 mM) (“BA”) alone; beta-hydroxybutyrate (2.4 mM) (“BHB”) alone; caprylic acid (2.4 mM) (“CA”) alone; caprylic acid (2.4 mM) combined with butyric acid (2.4 mM); and a combination of caprylic acid (2.4 mM), butyric acid (2.4 mM), and beta-hydroxybutyrate (2.4 mM) were all tested in HepG2 cells. Each compound (or combination of compounds) was added to a solvent containing glucose-free media that included 10% fetal bovine serum (FBX), 1 mM sodium pyruvate, and 1 mM glutamine.
Each test composition was administered to HepG2 cells in a cell culture plate. Each composition was tested with three replicates. Ketone levels in the HepG2 cell supernatants were measured at the time of administration (time=0) and every 45 minutes thereafter, up to 135 minutes. The results are presented as the difference between the ketone concentration that was measured at each time point (i.e., measured every 45 minutes) and the ketone concentration that was measured at time=0 for each test composition, such that any positive measurement indicates an increase in ketone levels from the baseline time=0 measurement.

As for `CCCC(=O)O` [butyric acid], the “induction of ketogenesis (generation of ketones)” value is listed as “neither butyric acid alone, nor caprylic acid alone, was shown to induce ketogenesis”.

In the case of `CCCCCCCC(=O)O` [caprylic acid, caprylic acid (octanoic acid)], the “induction of ketogenesis (generation of ketones)” value is given as “neither butyric acid alone, nor caprylic acid alone, was shown to induce ketogenesis”.
